The target of this assay is T1, FYN A (Homo sapiens, UniProt P06241).
T1 construct: purchased Thermo Fisher Scientific (Life Technologies) SelectScreen
Kind of assay: SelectScreen LanthaScreen. Type of assay: binding. To be noted: read-out: % displacement. The method, boiled down: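 NU5455 was profiled across the SelectScreen Broad panel of kinase activity and binding assays. Z'LYTE reactions such as CSF1R ran at apparent Km ATP, while the Adapta CAMK1 assay used ATP listed as 10. Values are given as percent.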
In general terms: Time-resolved FRET reads energy transfer from a long-lived donor to a nearby acceptor.

T1 sequence (P06241 whole entry): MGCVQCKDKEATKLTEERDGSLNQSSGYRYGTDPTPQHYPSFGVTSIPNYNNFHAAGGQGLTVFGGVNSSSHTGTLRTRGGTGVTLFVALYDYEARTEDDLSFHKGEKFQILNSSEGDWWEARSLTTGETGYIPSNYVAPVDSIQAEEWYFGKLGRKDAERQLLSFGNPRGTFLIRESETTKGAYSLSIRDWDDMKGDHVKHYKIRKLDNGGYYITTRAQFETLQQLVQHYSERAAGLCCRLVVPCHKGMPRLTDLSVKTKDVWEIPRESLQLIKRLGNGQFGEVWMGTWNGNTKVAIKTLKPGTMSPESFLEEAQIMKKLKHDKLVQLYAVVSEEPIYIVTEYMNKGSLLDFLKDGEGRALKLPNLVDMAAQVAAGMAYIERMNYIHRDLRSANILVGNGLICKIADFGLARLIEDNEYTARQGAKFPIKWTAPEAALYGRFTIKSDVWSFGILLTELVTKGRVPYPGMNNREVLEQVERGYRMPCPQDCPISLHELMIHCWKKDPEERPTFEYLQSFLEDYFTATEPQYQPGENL

Take `CN(C(=O)CN1CCOCC1)c1ccc2sc3c(-c4cccc5c(=O)cc(N6CC7CCC(C6)O7)oc45)cccc3c2c1` [NU5455]: the inhibition at 1 µM was determined as 3.3%.

These data come from publication PMC6934184, “Selective DNA-PKcs inhibition extends the therapeutic index of localized radiotherapy and chemotherapy” (The Journal of Clinical Investigation, 2019).
